Test results published in ChEMBL document CHEMBL1629541, “Synthesis and structure-activity relationships of aza- and diazabiphenyl analogues of the antitubercular drug (6S)-2-nitro-6-{[4-(trifluoromethoxy)benzyl]oxy}-6,7-dihydro-5H-imidazo[2,1-b][1,3]oxazine (PA-824)” (J Med Chem, 2010).
Values after ≈ are worked out from the molar mass of the structure shown.

Columns and labels:
physchem = conditions: water, pH 7
Description: Solubility of the compound in water at pH 7.0 by HPLC

[1] = test system: Mycobacterium tuberculosis; experiment: microbe, parasite or virus in culture; conditions: H37Rv
[2] = test system: Mycobacterium tuberculosis; experiment: microbe, parasite or virus in culture; conditions: H37Rv; remark: listed apart in the source
Description: Antitubercular activity against Mycobacterium tuberculosis H37Rv by LORA method

Row | Structure (SMILES) | solubility (physchem) [µg/mL] | MIC [1] [µM] | MIC [2] [µM]
1 | COc1ccc(-c2ccccc2CO[C@@H]2COc3nc([N+](=O)[O-])cn3C2)cn1 | 48 (≈ 126 µM) | 5.2 (≈ 1.99 µg/mL) | 8.3 (≈ 3.17 µg/mL)
2 | O=[N+]([O-])c1cn2c(n1)OC[C@@H](OCc1ccccc1-c1ccc(OCc3ccccc3)nc1)C2 | 1.2 (≈ 2.62 µM) | 2.7 (≈ 1.24 µg/mL) | 10 (≈ 4.58 µg/mL)
3 | O=[N+]([O-])c1cn2c(n1)OC[C@@H](OCc1ccccc1-c1ccncc1)C2 |  | > 8 | > 32
4 | O=[N+]([O-])c1cn2c(n1)OC[C@@H](OCc1cccc(-c3ccccn3)c1)C2 |  | 1.4 (≈ 0.493 µg/mL) | 11 (≈ 3.88 µg/mL)
5 | O=[N+]([O-])c1cn2c(n1)OC[C@@H](OCc1cccc(-c3ccc(C(F)(F)F)cn3)c1)C2 | 4 (≈ 9.52 µM) | 0.32 (≈ 0.135 µg/mL) | 4.3 (≈ 1.81 µg/mL)
6 | O=[N+]([O-])c1cn2c(n1)OC[C@@H](OCc1cccc(-c3ccc(OC(F)F)cn3)c1)C2 | 6.7 (≈ 16 µM) | 0.21 (≈ 0.0879 µg/mL) | 6.4 (≈ 2.68 µg/mL)
7 | O=[N+]([O-])c1cn2c(n1)OC[C@@H](OCc1cccc(-c3cccnc3)c1)C2 | 110 (≈ 312 µM) | 1.4 (≈ 0.493 µg/mL) | 9.7 (≈ 3.42 µg/mL)
8 | O=[N+]([O-])c1cn2c(n1)OC[C@@H](OCc1cccc(-c3ccc(C(F)(F)F)nc3)c1)C2 | 1.1 (≈ 2.62 µM) | 0.47 (≈ 0.198 µg/mL) | 8.4 (≈ 3.53 µg/mL)
9 | O=[N+]([O-])c1cn2c(n1)OC[C@@H](OCc1cccc(-c3ccc(F)nc3)c1)C2 | 26 (≈ 70.2 µM) | 0.37 (≈ 0.137 µg/mL) | 5.1 (≈ 1.89 µg/mL)
10 | COc1ccc(-c2cccc(CO[C@@H]3COc4nc([N+](=O)[O-])cn4C3)c2)cn1 | 18 (≈ 47.1 µM) | 0.4 (≈ 0.153 µg/mL) | 1.7 (≈ 0.65 µg/mL)
11 | O=[N+]([O-])c1cn2c(n1)OC[C@@H](OCc1cccc(-c3ccc(OCc4ccccc4)nc3)c1)C2 | 0.15 (≈ 0.327 µM) | 0.07 (≈ 0.0321 µg/mL) | 3 (≈ 1.38 µg/mL)
12 | O=[N+]([O-])c1cn2c(n1)OC[C@@H](OCc1cccc(-c3ccncc3)c1)C2 |  | 1.4 (≈ 0.493 µg/mL) | > 32
13 | O=[N+]([O-])c1cn2c(n1)OC[C@@H](OCc1ccc(-c3ccccn3)cc1)C2 | 7.3 (≈ 20.7 µM) | 0.21 (≈ 0.074 µg/mL) | 1.7 (≈ 0.599 µg/mL)
14 | O=[N+]([O-])c1cn2c(n1)OC[C@@H](OCc1ccc(-c3cccnc3)cc1)C2 | 29 (≈ 82.3 µM) | 0.51 (≈ 0.18 µg/mL) | 5.7 (≈ 2.01 µg/mL)
15 | N#Cc1ccc(-c2ccc(CO[C@@H]3COc4nc([N+](=O)[O-])cn4C3)cc2)nc1 | 1.7 (≈ 4.5 µM) | 0.08 (≈ 0.0302 µg/mL) | 2.5 (≈ 0.943 µg/mL)
16 | O=[N+]([O-])c1cn2c(n1)OC[C@@H](OCc1ccc(-c3cccc(F)n3)cc1)C2 | 4.3 (≈ 11.6 µM) | 0.14 (≈ 0.0518 µg/mL) | 1.1 (≈ 0.407 µg/mL)

Row | Structure (SMILES) | solubility (physchem) [µg/mL] | MIC [1] [µM] | MIC [2] [µM]
17 | COc1ccc(-c2ccc(CO[C@@H]3COc4nc([N+](=O)[O-])cn4C3)cc2)nc1 | 2.5 (≈ 6.54 µM) | 0.13 (≈ 0.0497 µg/mL) | 1.2 (≈ 0.459 µg/mL)
18 | N#Cc1ccc(-c2ccc(CO[C@@H]3COc4nc([N+](=O)[O-])cn4C3)cc2)cn1 | 3 (≈ 7.95 µM) | 0.2 (≈ 0.0755 µg/mL) | 2.4 (≈ 0.906 µg/mL)
19 | O=[N+]([O-])c1cn2c(n1)OC[C@@H](OCc1ccc(-c3cncc(F)c3)cc1)C2 | 55 (≈ 149 µM) | 0.55 (≈ 0.204 µg/mL) | 2.8 (≈ 1.04 µg/mL)
20 | Nc1ccc(-c2ccc(CO[C@@H]3COc4nc([N+](=O)[O-])cn4C3)cc2)cn1 | 13 (≈ 35.4 µM) | 2.6 (≈ 0.955 µg/mL) | 19 (≈ 6.98 µg/mL)
21 | O=[N+]([O-])c1cn2c(n1)OC[C@@H](OCc1ccc(-c3ccc(OCc4ccccc4)nc3)cc1)C2 | 0.03 (≈ 0.0654 µM) | 0.04 (≈ 0.0183 µg/mL) | > 32
22 | O=[N+]([O-])c1cn2c(n1)OC[C@@H](OCc1ccc(-c3ccncc3)cc1)C2 | 22 (≈ 62.4 µM) | 0.5 (≈ 0.176 µg/mL) | 9.2 (≈ 3.24 µg/mL)
23 | O=[N+]([O-])c1cn2c(n1)OC[C@@H](OCc1ccc(-c3ccncc3F)cc1)C2 | 16 (≈ 43.2 µM) | 0.56 (≈ 0.207 µg/mL) | 3.9 (≈ 1.44 µg/mL)
24 | O=[N+]([O-])c1cn2c(n1)OC[C@@H](OCc1cccc(-c3ccc(C(F)(F)F)cc3)n1)C2 | 5 (≈ 11.9 µM) | 0.29 (≈ 0.122 µg/mL) | 2.9 (≈ 1.22 µg/mL)
25 | N#Cc1ccc(-c2cccc(CO[C@@H]3COc4nc([N+](=O)[O-])cn4C3)n2)cc1 | 24 (≈ 63.6 µM) | 0.48 (≈ 0.181 µg/mL) | 10 (≈ 3.77 µg/mL)
26 | O=[N+]([O-])c1cn2c(n1)OC[C@@H](OCc1cccc(-c3ccc(F)cc3)n1)C2 |  | 0.3 (≈ 0.111 µg/mL) | 2.7 (≈ 1 µg/mL)
27 | O=[N+]([O-])c1cn2c(n1)OC[C@@H](OCc1cccc(-c3ccc(OC(F)(F)F)cc3)n1)C2 |  | 0.16 (≈ 0.0698 µg/mL) | 1.4 (≈ 0.611 µg/mL)
28 | O=[N+]([O-])c1cn2c(n1)OC[C@@H](OCc1cccc(-c3ccc(OC(F)F)cc3)n1)C2 | 9.6 (≈ 22.9 µM) | 0.17 (≈ 0.0711 µg/mL) | 2.7 (≈ 1.13 µg/mL)
29 | COc1ccc(-c2cccc(CO[C@@H]3COc4nc([N+](=O)[O-])cn4C3)n2)cc1F | 10 (≈ 25 µM) | 0.3 (≈ 0.12 µg/mL) | 4.3 (≈ 1.72 µg/mL)
30 | COc1ccc(-c2cccc(CO[C@@H]3COc4nc([N+](=O)[O-])cn4C3)n2)cn1 | 14 (≈ 36.5 µM) | 0.71 (≈ 0.272 µg/mL) | 5.2 (≈ 1.99 µg/mL)
31 | O=[N+]([O-])c1cn2c(n1)OC[C@@H](OCc1ccnc(-c3ccc(C(F)(F)F)cc3)c1)C2 | 2.8 (≈ 6.66 µM) | 0.075 (≈ 0.0315 µg/mL) | 4.4 (≈ 1.85 µg/mL)
32 | O=[N+]([O-])c1cn2c(n1)OC[C@@H](OCc1ccc(-c3ccc(C(F)(F)F)cc3)cc1)C2 | 0.43 (≈ 1.03 µM) |  | 
